Test results from article PMC10099431 (ACS Omega, 2023).
Read-outs that look alike come from different tables or passages of the source.

Assays:
[1] = type: physicochemical; conditions: 298.15 K; for Gibbs energy of transfer of RST from neat water to the mixture / ΔsolnG°, standard Gibbs free energy of dissolution: 0.1 MPa
[2] = cited from earlier work
[3] = cited from earlier work; remark: listed apart in the source
[4] = type: physicochemical; conditions: for 100 δx1,3 (preferential solvation parameter of RST by PEG400) / D (derivative of the Gibbs energy of transfer) / G1,3 (Kirkwood–Buff integral, PEG400–RST) / G2,3 (Kirkwood–Buff integral, water–RST) / Vcor (correlation volume): 0.1 MPa
[5] = Equilibrium mole fraction solubility of RST in {PEG400; type: physicochemical

## CC(C)c1nc(N(C)S(C)(=O)=O)nc(-c2ccc(F)cc2)c1/C=C/[C@@H](O)C[C@@H](O)CC(=O)[O-].CC(C)c1nc(N(C)S(C)(=O)=O)nc(-c2ccc(F)cc2)c1/C=C/[C@@H](O)C[C@@H](O)CC(=O)[O-].[Ca+2] [RST, (E)-7-[4-(4-fluorophenyl)-6-isopropyl-2-[methyl(methylsulfonyl)amino]pyrimidin-5-yl]-(3R,5S)-3,5-dihydroxyhept-6-enoic acid, calcium salt (2:1)]
[1]; all mixtures
  Gibbs energy of transfer of RST from neat water to {PEG400 + water} mixtures, range: −2.39 to −14.24 kJ·mol^–1
[1]; w1 = 0.00 (neat water)
  Gibbs energy of transfer of RST from neat water to the mixture: 0.00 kJ·mol^–1
  ΔsolnG°, standard Gibbs free energy of dissolution: 32.36 kJ·mol^–1
[1]; w1 = 0.10 PEG400
  Gibbs energy of transfer of RST from neat water to the mixture: –2.39 kJ·mol^–1
  ΔsolnG°, standard Gibbs free energy of dissolution: 29.97 kJ·mol^–1
[1]; w1 = 0.20 PEG400
  Gibbs energy of transfer of RST from neat water to the mixture: –3.53 kJ·mol^–1
  ΔsolnG°, standard Gibbs free energy of dissolution: 28.83 kJ·mol^–1
[1]; w1 = 0.30 PEG400
  Gibbs energy of transfer of RST from neat water to the mixture: –5.49 kJ·mol^–1
  ΔsolnG°, standard Gibbs free energy of dissolution: 26.86 kJ·mol^–1
[1]; w1 = 0.40 PEG400
  Gibbs energy of transfer of RST from neat water to the mixture: –7.93 kJ·mol^–1
  ΔsolnG°, standard Gibbs free energy of dissolution: 24.42 kJ·mol^–1
[1]; w1 = 0.50 PEG400
  Gibbs energy of transfer of RST from neat water to the mixture: –8.49 kJ·mol^–1
  ΔsolnG°, standard Gibbs free energy of dissolution: 23.87 kJ·mol^–1
[1]; w1 = 0.60 PEG400
  Gibbs energy of transfer of RST from neat water to the mixture: –8.94 kJ·mol^–1
  ΔsolnG°, standard Gibbs free energy of dissolution: 23.42 kJ·mol^–1
[1]; w1 = 0.70 PEG400
  Gibbs energy of transfer of RST from neat water to the mixture: –9.46 kJ·mol^–1
  ΔsolnG°, standard Gibbs free energy of dissolution: 22.90 kJ·mol^–1
[1]; w1 = 0.80 PEG400
  Gibbs energy of transfer of RST from neat water to the mixture: –10.34 kJ·mol^–1
  ΔsolnG°, standard Gibbs free energy of dissolution: 22.02 kJ·mol^–1
[1]; w1 = 0.90 PEG400
  ΔsolnG°, standard Gibbs free energy of dissolution: 21.15 kJ·mol^–1
[1]; w1 = 1.00 (neat PEG400)
  Gibbs energy of transfer of RST from neat water to the mixture: –14.24 kJ·mol^–1
  ΔsolnG°, standard Gibbs free energy of dissolution: 18.12 kJ·mol^–1
[2]; GastroPlus input parameter
  elimination half-life: 19 h
  total clearance: 0.455 L/h
  volume of distribution: 2.23 L/kg
[2]; reported
  oral bioavailability: ~20%
[3]; GastroPlus input parameter (Table 5)
  pKa: 4
[3]; GastroPlus input parameter
  hydrogen-bonding acceptor counts: 10
  hydrogen-bonding donor counts: 3
[3]; PEG400
  maximum solubility in PEG400: 65.7 mg/g
[3]; as reported in NLM PubChem
  aqueous solubility: 8.86 × 10^–2 g/L
[3]; water, 25 °C, GastroPlus input parameter
  solubility (mg/mL) in water at 25 (°C): 0.33 mg/mL
[4]; calculated from molar volume
  molecular radius r3: 0.5 nm
[4]; x1 = 0.00, 298.15 K
  100 δx1,3 (preferential solvation parameter of RST by PEG400): 0.00
  D (derivative of the Gibbs energy of transfer): –328.34 kJ·mol^–1
  G1,3 (Kirkwood–Buff integral, PEG400–RST): –2707.6 cm^3·mol^–1
  G2,3 (Kirkwood–Buff integral, water–RST): –313.7 cm^3·mol^–1
  Vcor (correlation volume): 1163 cm^3·mol^–1
[4]; x1 = 0.05, 298.15 K
  100 δx1,3 (preferential solvation parameter of RST by PEG400): 0.01
  D (derivative of the Gibbs energy of transfer): –31.52 kJ·mol^–1
  G1,3 (Kirkwood–Buff integral, PEG400–RST): –488.9 cm^3·mol^–1
  G2,3 (Kirkwood–Buff integral, water–RST): –491.2 cm^3·mol^–1
  Vcor (correlation volume): 1589 cm^3·mol^–1
[4]; x1 = 0.10, 298.15 K
  100 δx1,3 (preferential solvation parameter of RST by PEG400): 0.31
  D (derivative of the Gibbs energy of transfer): –9.90 kJ·mol^–1
  G1,3 (Kirkwood–Buff integral, PEG400–RST): –358.4 cm^3·mol^–1
  G2,3 (Kirkwood–Buff integral, water–RST): –412.8 cm^3·mol^–1
  Vcor (correlation volume): 1980 cm^3·mol^–1
[4]; x1 = 0.15, 298.15 K
  100 δx1,3 (preferential solvation parameter of RST by PEG400): 0.71
  D (derivative of the Gibbs energy of transfer): –10.32 kJ·mol^–1
  G1,3 (Kirkwood–Buff integral, PEG400–RST): –353.1 cm^3·mol^–1
  G2,3 (Kirkwood–Buff integral, water–RST): –458.2 cm^3·mol^–1
  Vcor (correlation volume): 2343 cm^3·mol^–1
[4]; x1 = 0.20, 298.15 K
  100 δx1,3 (preferential solvation parameter of RST by PEG400): 1.05
  D (derivative of the Gibbs energy of transfer): –9.89 kJ·mol^–1
  G1,3 (Kirkwood–Buff integral, PEG400–RST): –346.4 cm^3·mol^–1
  G2,3 (Kirkwood–Buff integral, water–RST): –492.0 cm^3·mol^–1
  Vcor (correlation volume): 2680 cm^3·mol^–1
[4]; x1 = 0.25, 298.15 K
  100 δx1,3 (preferential solvation parameter of RST by PEG400): 1.29
  D (derivative of the Gibbs energy of transfer): –8.96 kJ·mol^–1
  G1,3 (Kirkwood–Buff integral, PEG400–RST): –339.9 cm^3·mol^–1
  G2,3 (Kirkwood–Buff integral, water–RST): –513.6 cm^3·mol^–1
  Vcor (correlation volume): 2997 cm^3·mol^–1
[4]; x1 = 0.30, 298.15 K
  100 δx1,3 (preferential solvation parameter of RST by PEG400): 1.45
  D (derivative of the Gibbs energy of transfer): –7.95 kJ·mol^–1
  G1,3 (Kirkwood–Buff integral, PEG400–RST): –334.6 cm^3·mol^–1
  G2,3 (Kirkwood–Buff integral, water–RST): –529.0 cm^3·mol^–1
  Vcor (correlation volume): 3297 cm^3·mol^–1
[4]; x1 = 0.35, 298.15 K
  100 δx1,3 (preferential solvation parameter of RST by PEG400): 1.54
  D (derivative of the Gibbs energy of transfer): –7.01 kJ·mol^–1
  G1,3 (Kirkwood–Buff integral, PEG400–RST): –330.5 cm^3·mol^–1
  G2,3 (Kirkwood–Buff integral, water–RST): –542.0 cm^3·mol^–1
  Vcor (correlation volume): 3585 cm^3·mol^–1
[4]; x1 = 0.40, 298.15 K
  100 δx1,3 (preferential solvation parameter of RST by PEG400): 1.60
  D (derivative of the Gibbs energy of transfer): –6.19 kJ·mol^–1
  G1,3 (Kirkwood–Buff integral, PEG400–RST): –327.6 cm^3·mol^–1
  G2,3 (Kirkwood–Buff integral, water–RST): –554.7 cm^3·mol^–1
  Vcor (correlation volume): 3863 cm^3·mol^–1
[4]; x1 = 0.45, 298.15 K
  100 δx1,3 (preferential solvation parameter of RST by PEG400): 1.64
  D (derivative of the Gibbs energy of transfer): –5.48 kJ·mol^–1
  G1,3 (Kirkwood–Buff integral, PEG400–RST): –325.4 cm^3·mol^–1
  G2,3 (Kirkwood–Buff integral, water–RST): –568.4 cm^3·mol^–1
  Vcor (correlation volume): 4133 cm^3·mol^–1
[4]; x1 = 0.5, 298.15 K
  δx1,3, highest preferential solvation parameter of RST by PEG400: 1.65 × 10^–2
[4]; x1 = 0.50, 298.15 K
  100 δx1,3 (preferential solvation parameter of RST by PEG400): 1.65
  D (derivative of the Gibbs energy of transfer): –4.88 kJ·mol^–1
  G1,3 (Kirkwood–Buff integral, PEG400–RST): –323.8 cm^3·mol^–1
  G2,3 (Kirkwood–Buff integral, water–RST): –584.0 cm^3·mol^–1
  Vcor (correlation volume): 4396 cm^3·mol^–1
[4]; x1 = 0.55, 298.15 K
  100 δx1,3 (preferential solvation parameter of RST by PEG400): 1.64
  D (derivative of the Gibbs energy of transfer): –4.36 kJ·mol^–1
  G1,3 (Kirkwood–Buff integral, PEG400–RST): –322.8 cm^3·mol^–1
  G2,3 (Kirkwood–Buff integral, water–RST): –601.8 cm^3·mol^–1
  Vcor (correlation volume): 4652 cm^3·mol^–1
[4]; x1 = 0.60, 298.15 K
  100 δx1,3 (preferential solvation parameter of RST by PEG400): 1.61
  D (derivative of the Gibbs energy of transfer): –3.92 kJ·mol^–1
  G1,3 (Kirkwood–Buff integral, PEG400–RST): –322.0 cm^3·mol^–1
  G2,3 (Kirkwood–Buff integral, water–RST): –621.8 cm^3·mol^–1
  Vcor (correlation volume): 4901 cm^3·mol^–1
[4]; x1 = 0.65, 298.15 K
  100 δx1,3 (preferential solvation parameter of RST by PEG400): 1.55
  D (derivative of the Gibbs energy of transfer): –3.54 kJ·mol^–1
  G1,3 (Kirkwood–Buff integral, PEG400–RST): –321.5 cm^3·mol^–1
  G2,3 (Kirkwood–Buff integral, water–RST): –643.4 cm^3·mol^–1
  Vcor (correlation volume): 5144 cm^3·mol^–1
[4]; x1 = 0.70, 298.15 K
  100 δx1,3 (preferential solvation parameter of RST by PEG400): 1.46
  D (derivative of the Gibbs energy of transfer): –3.21 kJ·mol^–1
  G1,3 (Kirkwood–Buff integral, PEG400–RST): –321.0 cm^3·mol^–1
  G2,3 (Kirkwood–Buff integral, water–RST): –664.5 cm^3·mol^–1
  Vcor (correlation volume): 5379 cm^3·mol^–1
[4]; x1 = 0.75, 298.15 K
  100 δx1,3 (preferential solvation parameter of RST by PEG400): 1.31
  D (derivative of the Gibbs energy of transfer): –2.92 kJ·mol^–1
  G1,3 (Kirkwood–Buff integral, PEG400–RST): –320.4 cm^3·mol^–1
  G2,3 (Kirkwood–Buff integral, water–RST): –682.1 cm^3·mol^–1
  Vcor (correlation volume): 5607 cm^3·mol^–1
[4]; x1 = 0.80, 298.15 K
  100 δx1,3 (preferential solvation parameter of RST by PEG400): 1.09
  D (derivative of the Gibbs energy of transfer): –2.67 kJ·mol^–1
  G1,3 (Kirkwood–Buff integral, PEG400–RST): –319.6 cm^3·mol^–1
  G2,3 (Kirkwood–Buff integral, water–RST): –691.4 cm^3·mol^–1
  Vcor (correlation volume): 5827 cm^3·mol^–1
[4]; x1 = 0.85, 298.15 K
  100 δx1,3 (preferential solvation parameter of RST by PEG400): 0.83
  D (derivative of the Gibbs energy of transfer): –2.45 kJ·mol^–1
  G1,3 (Kirkwood–Buff integral, PEG400–RST): –318.5 cm^3·mol^–1
  G2,3 (Kirkwood–Buff integral, water–RST): –687.6 cm^3·mol^–1
  Vcor (correlation volume): 6039 cm^3·mol^–1
[4]; x1 = 0.90, 298.15 K
  100 δx1,3 (preferential solvation parameter of RST by PEG400): 0.54
  D (derivative of the Gibbs energy of transfer): –2.26 kJ·mol^–1
  G1,3 (Kirkwood–Buff integral, PEG400–RST): –317.0 cm^3·mol^–1
  G2,3 (Kirkwood–Buff integral, water–RST): –668.0 cm^3·mol^–1
  Vcor (correlation volume): 6246 cm^3·mol^–1
[4]; x1 = 0.95, 298.15 K
  100 δx1,3 (preferential solvation parameter of RST by PEG400): 0.25
  D (derivative of the Gibbs energy of transfer): –2.08 kJ·mol^–1
  G1,3 (Kirkwood–Buff integral, PEG400–RST): –315.3 cm^3·mol^–1
  G2,3 (Kirkwood–Buff integral, water–RST): –633.9 cm^3·mol^–1
  Vcor (correlation volume): 6447 cm^3·mol^–1
[4]; x1 = 1.00, 298.15 K
  100 δx1,3 (preferential solvation parameter of RST by PEG400): 0.00
  D (derivative of the Gibbs energy of transfer): –1.93 kJ·mol^–1
  G1,3 (Kirkwood–Buff integral, PEG400–RST): –313.7 cm^3·mol^–1
  G2,3 (Kirkwood–Buff integral, water–RST): –590.9 cm^3·mol^–1
  Vcor (correlation volume): 6645 cm^3·mol^–1
[5]; PEG400
  solubility at 3 days: 6500 µg/mL
[5]; PEG400 + water cosolvent mixture
  solubility at 3 days: 4140 µg/mL
